SMILES strings stand for the structures. Where a name gives a salt, the structure may show the parent alone.

As a reminder, the Kd is a measure of binding affinity in units of concentration.

Chain of human TYK2 (JH2domain-pseudokinase) (P29597 556-888): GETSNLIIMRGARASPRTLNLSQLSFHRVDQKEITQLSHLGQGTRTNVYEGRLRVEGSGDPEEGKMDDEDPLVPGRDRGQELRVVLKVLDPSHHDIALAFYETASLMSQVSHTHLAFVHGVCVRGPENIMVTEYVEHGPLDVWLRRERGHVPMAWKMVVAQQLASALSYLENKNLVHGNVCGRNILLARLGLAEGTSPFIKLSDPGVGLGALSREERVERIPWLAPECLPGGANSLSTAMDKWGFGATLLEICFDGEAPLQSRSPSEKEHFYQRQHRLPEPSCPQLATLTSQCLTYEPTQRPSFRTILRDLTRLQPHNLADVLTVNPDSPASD

One test concerns the target human TYK2 (JH2domain-pseudokinase) (Homo sapiens (Human), UniProt P29597). Briefly: TYK2 JH2 Domain Binding Assay (KINOMEscan competition binding). As to conditions: KINOMEscan; 11-point 3-fold dilution, top concentration 30,000 nM; Kd measurements in duplicate; read-out: TYK JH2 (Kd). The method, then: Binding constants for compounds disclosed herein may be determined by the KINOMEscan® assay developed by DiscoveRx. KINOMEscan® is based on a competition binding assay that quantitatively measures the ability of a compound to compete with an immobilized, active-site directed ligand. The assay is performed by combining three components: DNA-tagged kinase; immobilized ligand; and a test compound. The ability of the test compound to compete with the immobilized ligand is measure via quantitative PCR of the DNA tag.
Binding constants for compounds disclosed herein against the JH2 domain are determined by the following protocol for a KINOMEscan® assay (DiscoveRx). A fusion protein of a partial length construct of human TYK2 (JH2domain-pseudokinase) (amino acids G556 to D888 based on reference sequence NP 003322.3) and the DNA binding domain of NFkB is expressed in transiently transfected HEK293 cells. From these HEK 293 cells, extracts are prepared in M-PER extraction buffer (Pierce) in the presence of Protease Inhibitor Cocktail Complete (Roche) and Phosphatase Inhibitor Cocktail Set II (Merck) per manufacturers' instructions. The TYK2 (JH2domain-pseudokinase) fusion protein is labeled with a chimeric double-stranded DNA tag containing the NFkB binding site (5′-GGGAATTCCC-3′) fused to an amplicon for qPCR readout, which is added directly to the expression extract (the final concentration of DNA-tag in the binding reaction is 0.1 nM).
Streptavidin-coated magnetic beads (Dynal M280) are treated with a biotinylated small molecule ligand for 30 minutes at room temperature to generate affinity resins for the binding assays. The liganded beads are blocked with excess biotin and washed with blocking buffer (SeaBlock (Pierce), 1% BSA, 0.05% Tween 20, 1 mM DTT) to remove unbound ligand and to reduce nonspecific binding.
Extracts are used directly in binding assays without any enzyme purification steps at a >10,000-fold overall stock dilution (final DNA tagged enzyme concentration<0.1 nM). Extracts are loaded with DNA-tag and diluted into the binding reaction in a two-step process. First extracts are diluted 1:100 in 1× binding buffer (PBS/0.05% Tween 20/10 mM DTT/0.1% BSA/[…] sonicated salmon sperm DNA) containing 10 nM DNA-tag. This dilution is allowed to equilibrate at room temperature for 15 minutes and then subsequently diluted 1:100 in 1× binding buffer. Test compounds are prepared as 111× stocks in 100% DMSO. Kds are determined using an 11-point 3-fold compound dilution series with three DMSO control points. All compounds for Kd measurements are distributed by acoustic transfer (non-contact dispensing) in 100% DMSO. The compounds are then diluted directly into the assays such that the final concentration of DMSO is 0.9%. All reactions performed in polypropylene 384-well plates. Each is a final volume of 0.02 mL. Assays are incubated with shaking for 1 hour at room temperature. Then the beads are pelleted and washed with wash buffer (lx PBS, 0.05% Tween 20) to remove displaced kinase and test compound. The washed beads are re-suspended in elution buffer (lx PBS, 0.05% Tween 20, 0.5 μM non-biotinylated affinity ligand) and incubated at room temperature with shaking for 30 minutes. The kinase concentration in the eluates is measured by qPCR. qPCR reactions are assembled by adding 2.5 μL of kinase eluate to 7.5 μL of qPCR master mix containing 0.15 μM amplicon primers and 0.15 μM amplicon probe. The qPCR protocol consists of a 10-minute hot start at 95° C., followed by 35 cycles of 95° C. for 15 seconds, 60° C. for 1 minute.
Test compounds are prepared as 111× stocks in 100% DMSO. Kds are determined using an 11-point 3-fold compound dilution series with three DMSO control points. All compounds for Kd measurements are distributed by acoustic transfer (non-contact dispensing) in 100% DMSO. The compounds are then diluted directly into the assays such that the final concentration of DMSO is 0.9%. […]
As to `CNC(=O)c1cnc(N2CCN(C(=O)OC(C)(C)C)CC2C)nc1Nc1ccc(C2CC2)nc1` (centres unmarked) [Compound 15, Tert-Butyl 4-(4-((6-cyclopropylpyridin-3-yl)amino)-5-(methylcarbamoyl)pyrimidin-2-yl)-3-methylpiperazine-1-carboxylate], the Kd stood at 42000 nM.

In the case of `CC(C)(C)OC(=O)N1CCCN(c2ncc(C(N)=O)c(Nc3ccc(C4CC4)nc3)n2)CC1` [Compound 47, Tert-Butyl 4-(S-carbamoyl-4-((6-cyclopropylpyridin-3-yl)amino)pyrimidin-2-yl)-1,4-diazepane-1-carboxylate], the Kd is 6700 nM.

Turning to `CNC(=O)c1cnc(N2CCC(C(=O)NC)C2)nc1NC(=O)c1n[nH]c2c(OC)cccc12` (centres unmarked) [Compound 56, 7-methoxy-N-(5-(methylcarbamoyl)-2-(3-(methylcarbamoyl)pyrrolidin-1-yl)pyrimidin-4-yl)-1H-indazole-3-carboxamide], the dissociation constant (Kd) came to 11000 nM.

For `CNC(=O)c1cnc(N2CCN(C(C)=O)CC2C)nc1Nc1ccccc1S(C)(=O)=O` (centres unmarked) [Compound 76, 2-(4-acetyl-2-methylpiperazin-1-yl)-N-methyl-4-((2-(methylsulfonyl)phenyl)amino)pyrimidine-5-carboxamide], the Kd amounted to 210 nM.

As for `CNC(=O)c1cnc(N2CCNCC2C)nc1Nc1ccccc1S(C)(=O)=O` (centres unmarked) [Compound 69, N-methyl-2-(2-methylpiperazin-1-yl)-4-((2-(methylsulfonyl)phenyl)amino)pyrimidine-5-carboxamide Hydrochloride], the dissociation constant Kd was determined as 1800 nM.

Take `CS(=O)(=O)c1ccccc1Nc1nc(N2CCCNCC2)ncc1C(N)=O` [Compound 79, 2-(1,4-diazepan-1-yl)-4-((2-(methylsulfonyl)phenyl)amino)pyrimidine-5-carboxamide hydrochloride]: the Kd was found to be 1700 nM.

Regarding `COc1ccccc1Nc1nc(N2CCN(C(C)=O)CC2C)ncc1C(N)=O` (centres unmarked) [Compound 59, 2-(4-acetyl-2-methylpiperazin-1-yl)-4-((2-methoxyphenyl)amino)pyrimidine-5-carboxamide], the Kd is 270 nM.

On to `CNC(=O)[C@@H]1CCN(c2ncc(C(N)=O)c(Nc3cccc(-c4ncc(F)cn4)c3OC)n2)C1` [Compound 53, (R)-4-((3-(5-fluoropyrimidin-2-yl)-2-methoxyphenyl)amino)-2-(3-(methylcarbamoyl)pyrrolidin-1-yl)pyrimidine-5-carboxamide], for which the Kd was determined as 0.11 nM.

In the case of `NC(=O)c1cnc(N2CCCC2)nc1Nc1ccc(C2CC2)nc1` [Compound 2, 4-((6-cyclopropylpyridin-3-yl)amino)-2-(pyrrolidin-1-yl)pyrimidine-5-carboxamide], the Kd is 12 nM.

Consider `CCOC(=O)C1CCN(c2ncc(C(=O)NC)c(Nc3ccccc3S(C)(=O)=O)n2)CC1` [Compound 17, Ethyl 1-(5-(methylcarbamoyl)-4-((2-(methylsulfonyl)phenyl)amino)pyrimidin-2-yl)piperidine-4-carboxylate], for which the equilibrium dissociation constant (Kd) was 21 nM.

`COc1ccccc1Nc1nc(N2CCCN(C(C)=O)CC2)ncc1C(N)=O` [Compound 58, 2-(4-acetyl-1,4-diazepan-1-yl)-4-((2-methoxyphenyl)amino)pyrimidine-5-carboxamide]: the Kd was 1800 nM.

For the compound `CC(=O)N1CCN(c2ncc(C(N)=O)c(Nc3ccc(C4CC4)nc3)n2)C(C)C1` (centres unmarked) [Compound 11, 2-(4-acetyl-2-methylpiperazin-1-yl)-4-((6-cyclopropylpyridin-3-yl)amino)pyrimidine-5-carboxamide], the Kd worked out at 180 nM.

For `CNC(=O)C1CN(c2ncc(C(N)=O)c(Nc3ccc(C4CC4)nc3)n2)C1` [Compound 50, 4-((6-cyclopropylpyridin-3-yl)amino)-2-(3-(methylcarbamoyl)azetidin-1-yl)pyrimidine-5-carboxamide], the Kd came out at 110 nM.

Take `CNC(=O)c1cnc(N2CCCNCC2)nc1Nc1ccccc1OC` [Compound 29, 2-(1,4-diazepan-1-yl)-4-((2-methoxyphenyl)amino)-N-methylpyrimidine-5-carboxamide]: the Kd came to 4600 nM.

`CNC(=O)c1cnc(N2CCCNCC2)nc1Nc1cccc(-c2ncc(F)cn2)c1OC` [Compound 74, 2-(1,4-diazepan-1-yl)-4-((3-(5-fluoropyrimidin-2-yl)-2-methoxyphenyl)amino)-N-methylpyrimidine-5-carboxamide Hydrochloride]: the Kd was determined as 800 nM.

Turning to `CNC(=O)c1cnc(N2CCCN(C(=O)OC(C)(C)C)CC2)nc1Nc1ccccc1S(C)(=O)=O` [Compound 66, Tert-Butyl 4-(S-(methylcarbamoyl)-4-((2-(methylsulfonyl)phenyl)amino)pyrimidin-2-yl)-1,4-diazepane-1-carboxylate], the Kd turned out to be 6300 nM.

As for `CC1CN(C(=O)OC(C)(C)C)CCN1c1ncc(C(N)=O)c(Nc2ccc(C3CC3)nc2)n1` (centres unmarked) [Compound 13, Tert-Butyl 4-(S-carbamoyl-4-((6-cyclopropylpyridin-3-yl)amino)pyrimidin-2-yl)-3-methylpiperazine-1-carboxylate], the Kd worked out at 1000 nM.

In the case of `CNC(=O)C1CN(c2ncc(C(N)=O)c(Nc3cccc(-c4ncc(F)cn4)c3OC)n2)C1` [Compound 48, 4-((3-(5-fluoropyrimidin-2-yl)-2-methoxyphenyl)amino)-2-(3-(methylcarbamoyl)azetidin-1-yl)pyrimidine-5-carboxamide], the Kd was 0.5 nM.

Turning to `CNC(=O)c1cnc(N2CCNCC2C)nc1Nc1ccccc1OC` (centres unmarked) [Compound 31, 4-((2-methoxyphenyl)amino)-N-methyl-2-(2-methylpiperazin-1-yl)pyrimidine-5-carboxamide Hydrochloride], the Kd is 4800 nM.

`CNC(=O)c1cnc(N2CCC(C(=O)NC)C2)nc1Nc1ccc(C2CC2)nc1` (centres unmarked) [Compound 1, 4-((6-cyclopropylpyridin-3-yl)amino)-N-methyl-2-(3-(methylcarbamoyl)pyrrolidin-1-yl)pyrimidine-5-carboxamide]: the Kd turned out to be 170 nM.

In the case of `CNC(=O)c1cnc(N2CC[C@H](C(=O)NC)C2)nc1Nc1cccc(-c2ncc(F)cn2)c1OC` [Compound 7, (S)-4-((3-(5-fluoropyrimidin-2-yl)-2-methoxyphenyl)amino)-N-methyl-2-(3-(methylcarbamoyl)pyrrolidin-1-yl)pyrimidine-5-carboxamide], the Kd is 3.9 nM.

Consider `CC(=O)N1CCCN(c2ncc(C(N)=O)c(Nc3ccc(C4CC4)nc3)n2)CC1` [Compound 64, 2-(4-acetyl-1,4-diazepan-1-yl)-4-((6-cyclopropylpyridin-3-yl)amino)pyrimidine-5-carboxamide], for which the Kd is 1400 nM.

Consider `CCOC(=O)C1CCN(c2ncc(C(N)=O)c(Nc3ccccc3OC)n2)CC1` [Compound 45, Ethyl 1-(5-carbamoyl-4-((2-methoxyphenyl)amino)pyrimidin-2-yl)piperidine-4-carboxylate], for which the dissociation constant (Kd) was determined as 200 nM.

Consider `CCOC(=O)C1CCN(c2ncc(C(=O)NC)c(Nc3cccc(-c4ncc(F)cn4)c3OC)n2)CC1` [Compound 28, Ethyl 1-(4-((3-(5-fluoropyrimidin-2-yl)-2-methoxyphenyl)amino)-5-(methylcarbamoyl)pyrimidin-2-yl)piperidine-4-carboxylate], for which the equilibrium dissociation constant (Kd) is 2.3 nM.

As for `CNC(=O)c1cnc(N2CCC(C(=O)O)CC2)nc1Nc1ccccc1S(C)(=O)=O` [Compound 68, 1-(5-(methylcarbamoyl)-4-((2-(methylsulfonyl)phenyl)amino)pyrimidin-2-yl)piperidine-4-carboxylic Acid], the Kd came out at 160 nM.

Staying with this test, now noted: Table 4: pyrimidinyl compound of Formula I versus compounds with a different heteroaryl core; read-out: TYK JH2 (Kd).
For `CNC(=O)c1cnc(N2CCC(C(=O)NC)C2)nc1Nc1ccc(C2CC2)nc1` (centres unmarked) [drawing 147], the Kd turned out to be 170 nM.

(Values after patent US20250257051A1, “SUBSTITUTED PYRIMIDINE COMPOUNDS AS TYK2 INHIBITORS” (1910 Genetics Inc., priority 2022, published 2025).)
